According to patent US20110166136A1, “Calcium Ion Channel Modulators & Uses Thereof” (LECTUS THERAPEUTICS LIMITED, priority 2008, published 2011):

Experiments:
N-type/Cav2.2 channels = target: T1, N-type/Cav2.2 channels (Homo sapiens, UniProt Q00975); assay: Whole-cell patch-clamp recording of barium currents carried by calcium channels in primary dorsal root ganglion neurons; assay type: cell-based; conditions: 0.5 Hz stimulation, 100-ms steps to 0 mV from -70 mV, DRG neurons with Cm <40 pf
T1 construct: Primary dorsal root ganglion neurons were isolated using standard techniques; endogenous in cells
T1 sequence (Q00975 whole entry): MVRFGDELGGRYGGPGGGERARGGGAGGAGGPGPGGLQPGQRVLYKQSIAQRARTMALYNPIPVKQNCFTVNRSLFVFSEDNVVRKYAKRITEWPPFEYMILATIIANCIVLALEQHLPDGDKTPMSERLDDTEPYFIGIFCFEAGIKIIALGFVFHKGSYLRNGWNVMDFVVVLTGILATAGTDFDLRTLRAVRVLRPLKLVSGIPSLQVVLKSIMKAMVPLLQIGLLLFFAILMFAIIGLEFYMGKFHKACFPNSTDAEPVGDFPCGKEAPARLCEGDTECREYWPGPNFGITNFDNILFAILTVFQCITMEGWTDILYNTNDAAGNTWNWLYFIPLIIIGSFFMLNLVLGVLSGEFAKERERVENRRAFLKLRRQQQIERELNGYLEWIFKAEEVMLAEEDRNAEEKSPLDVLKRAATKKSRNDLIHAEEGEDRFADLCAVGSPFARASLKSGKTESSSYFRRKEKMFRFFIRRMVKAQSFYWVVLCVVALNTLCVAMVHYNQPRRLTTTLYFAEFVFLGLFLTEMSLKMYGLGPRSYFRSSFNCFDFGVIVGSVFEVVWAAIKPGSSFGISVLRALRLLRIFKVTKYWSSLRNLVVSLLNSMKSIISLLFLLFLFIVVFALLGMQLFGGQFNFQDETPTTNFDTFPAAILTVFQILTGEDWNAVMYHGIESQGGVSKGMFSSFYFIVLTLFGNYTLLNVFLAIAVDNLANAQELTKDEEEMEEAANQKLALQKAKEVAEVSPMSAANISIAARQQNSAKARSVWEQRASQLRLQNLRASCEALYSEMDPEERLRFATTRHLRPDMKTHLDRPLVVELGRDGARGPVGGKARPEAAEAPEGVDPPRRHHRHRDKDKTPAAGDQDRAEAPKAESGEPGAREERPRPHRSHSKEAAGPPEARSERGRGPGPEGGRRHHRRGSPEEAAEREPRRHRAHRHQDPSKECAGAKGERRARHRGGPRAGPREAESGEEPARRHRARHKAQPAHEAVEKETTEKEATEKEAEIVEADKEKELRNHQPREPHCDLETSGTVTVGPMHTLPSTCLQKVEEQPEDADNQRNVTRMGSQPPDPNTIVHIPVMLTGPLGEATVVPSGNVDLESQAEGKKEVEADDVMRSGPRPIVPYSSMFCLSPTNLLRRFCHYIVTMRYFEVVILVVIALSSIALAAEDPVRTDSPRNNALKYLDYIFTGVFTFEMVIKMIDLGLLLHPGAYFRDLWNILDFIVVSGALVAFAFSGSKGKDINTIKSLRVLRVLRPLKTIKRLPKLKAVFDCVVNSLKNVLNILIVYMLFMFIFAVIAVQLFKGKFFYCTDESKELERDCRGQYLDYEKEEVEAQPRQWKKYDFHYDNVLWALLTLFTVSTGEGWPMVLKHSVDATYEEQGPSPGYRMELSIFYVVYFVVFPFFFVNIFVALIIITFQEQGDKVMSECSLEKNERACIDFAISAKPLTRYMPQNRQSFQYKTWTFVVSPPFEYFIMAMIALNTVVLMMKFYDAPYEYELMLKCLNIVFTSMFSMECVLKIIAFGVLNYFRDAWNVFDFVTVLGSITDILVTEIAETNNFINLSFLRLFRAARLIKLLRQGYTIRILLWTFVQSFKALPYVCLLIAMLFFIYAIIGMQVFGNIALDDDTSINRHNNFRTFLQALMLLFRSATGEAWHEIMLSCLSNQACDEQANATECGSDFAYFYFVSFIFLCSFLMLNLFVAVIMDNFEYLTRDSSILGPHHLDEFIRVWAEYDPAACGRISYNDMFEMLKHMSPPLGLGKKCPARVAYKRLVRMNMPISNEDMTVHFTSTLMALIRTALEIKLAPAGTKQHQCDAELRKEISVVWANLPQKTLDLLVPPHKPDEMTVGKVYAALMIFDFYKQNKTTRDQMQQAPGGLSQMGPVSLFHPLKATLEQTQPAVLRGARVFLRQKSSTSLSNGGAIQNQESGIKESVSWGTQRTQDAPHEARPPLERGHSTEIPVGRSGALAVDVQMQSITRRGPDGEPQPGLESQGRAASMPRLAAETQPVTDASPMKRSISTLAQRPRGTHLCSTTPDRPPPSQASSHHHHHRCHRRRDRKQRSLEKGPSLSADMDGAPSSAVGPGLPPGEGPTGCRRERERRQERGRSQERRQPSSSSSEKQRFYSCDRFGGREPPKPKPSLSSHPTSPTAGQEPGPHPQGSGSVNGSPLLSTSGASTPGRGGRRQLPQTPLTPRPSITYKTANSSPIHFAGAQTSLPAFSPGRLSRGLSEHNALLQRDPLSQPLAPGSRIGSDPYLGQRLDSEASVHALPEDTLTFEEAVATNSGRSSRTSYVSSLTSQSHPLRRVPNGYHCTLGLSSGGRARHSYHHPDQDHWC
T1 sequence (P54289 25-956 partner limits assumed): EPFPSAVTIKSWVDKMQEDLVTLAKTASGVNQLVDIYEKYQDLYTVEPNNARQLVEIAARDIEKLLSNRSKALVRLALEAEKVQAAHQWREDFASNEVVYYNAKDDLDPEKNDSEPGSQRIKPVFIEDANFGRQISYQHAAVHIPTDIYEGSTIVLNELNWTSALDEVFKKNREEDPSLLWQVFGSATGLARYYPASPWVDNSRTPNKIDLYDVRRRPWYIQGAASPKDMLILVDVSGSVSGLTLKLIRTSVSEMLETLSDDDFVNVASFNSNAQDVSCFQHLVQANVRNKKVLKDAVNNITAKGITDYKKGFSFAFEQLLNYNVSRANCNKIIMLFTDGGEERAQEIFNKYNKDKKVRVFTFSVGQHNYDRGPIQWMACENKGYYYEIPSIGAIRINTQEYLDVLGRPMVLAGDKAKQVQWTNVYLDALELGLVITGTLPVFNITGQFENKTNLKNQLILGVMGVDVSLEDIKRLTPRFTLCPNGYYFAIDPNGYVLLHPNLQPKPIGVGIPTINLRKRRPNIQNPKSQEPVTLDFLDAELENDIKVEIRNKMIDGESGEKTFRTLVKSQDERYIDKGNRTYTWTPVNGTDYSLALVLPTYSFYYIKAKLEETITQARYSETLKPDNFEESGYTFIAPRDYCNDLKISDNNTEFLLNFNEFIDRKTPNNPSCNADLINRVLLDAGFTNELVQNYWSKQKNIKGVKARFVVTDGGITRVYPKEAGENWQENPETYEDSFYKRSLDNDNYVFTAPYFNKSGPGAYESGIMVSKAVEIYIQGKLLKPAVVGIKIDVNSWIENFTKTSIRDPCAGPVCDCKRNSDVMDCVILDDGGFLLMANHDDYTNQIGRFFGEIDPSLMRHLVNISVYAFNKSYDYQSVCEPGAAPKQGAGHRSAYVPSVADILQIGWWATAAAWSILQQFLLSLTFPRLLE
T1 sequence (P54289 957-1103 partner limits assumed): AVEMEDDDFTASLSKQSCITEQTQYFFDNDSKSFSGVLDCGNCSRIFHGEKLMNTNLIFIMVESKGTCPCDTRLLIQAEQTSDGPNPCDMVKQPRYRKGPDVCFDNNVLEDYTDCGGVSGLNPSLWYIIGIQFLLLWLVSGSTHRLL
Procedure: Primary dorsal root ganglion neurons were isolated using standard techniques and placed in Ca^2+/Mg^2+ free phosphate-buffered saline (PBS). Hemisection of the spinal column and cord was performed and the ganglia were uncovered by gently lifting the spinal cord. They were placed in a dissociation solution (PBS) containing 1 mg/ml Collagenase (type XI) and trypsin (type II-S). Ganglia were incubated in the dissociation solution for 20 minutes at room temperature, followed by 20 minutes at 37° C. Ganglia were washed in culture medium, Dulbecco's Minimum essential medium (DMEM), supplemented with fetal calf serum (10%, Gibco), penicillin/strepromycin and glutamine (Glutamax, Gibco). Cells were dispersed by trituration and plated on poly-L-lysine-coated 35-mm dishes (BD Bioscience). Cells were kept in culture in a humidified atmosphere (37° C., 5% CO2) for up to 4 days for electrophysiological recordings. Unless otherwise noted, all reagents were purchased from Sigma-Aldrich.
Barium currents carried by calcium channels were recorded using the whole-cell configuration of the patch-clamp technique. All experiments were carried out at room temperature. Cells were bathed in an external solution containing, in mM: TEA-CI, 140; BaCl2, 5; MgCl2, 1; HEPES, 10; pH 7.3 adjusted with TEA-OH. Ba^2+ was used as a charge carrier to prevent the run-down caused by Ca^2+-activated inactivation of Ca^2+ channels. […] Electrophysiological recordings were generated and acquired with a patch-clamp amplifier (Axopatch 200B, or Multiclamp 7; Molecular devices) connected to a personal computer. Online and offline analysis was carried out using the pClamp software suite (v.9, Molecular Devices). Compounds were all prepared from 100 mM stocks in 100% dimethyl sulfoxide (DMSO) and further diluted in external solution to achieve the desired final concentration. Final DMSO concentration was always <0.1%. For the assessment of activity of the compounds, only cells with a membrane capacitance (Cm)<40 pf were used, as the Ca2+ current in these cells is carried mostly through N-type/Cav2.2 channels. Cell membrane potential was held at −70 mV and currents were elicited by a series of 100-ms steps to 0 mV, at a frequency of 0.1 Hz. After the establishment of a steady baseline current, the compound was applied to the bath. When the block induced by the compound reached a steady level, the frequency was then increased to 0.5 Hz, to assess use-dependence. After stabilization of the high frequency block, step depolarizations were stopped and cell membrane potential was kept at −70 mV for 100-120 s, after which 0.1 Hz stimulation (100 ms, 0 mV) was elicited, to assess recovery of the block. ω-conotoxin GVIA (100 nM; Alomone labs) was added at the end of the experiment to quantify the remaining N-type current. Selectivity of the compounds over non-N-type currents was studied using similar stimulation protocols, in a bath solution containing ω-conotoxin GVIA (100 nM).

[1] = test system: α2-δ voltage-gated calcium channel; conditions: compared with gabapentin; cited from earlier work
[2] = DRG neuron, compound concentration 1 uM

| Compound | inhibition at 1 µM (N-type/Cav2.2 channels; [2]) [%] | further results |
| --- | --- | --- |
| O=C(O)C(=O)c1c[nH]c2cc(F)ccc12 [Compound 20, 2-(6-fluoro-1H-indol-3-yl)-2-oxoacetic acid] | 55 | – |
| COc1ccc2c(C(=O)C(=O)N3CCN(C)CC3)c[nH]c2c1 [Compound 77, 1-(6-methoxy-1H-indol-3-yl)-2-(4-methylpiperazin-1-yl)ethane-1,2-dione] | 55 | – |
| CC(C)C[C@H](CN)CC(=O)O [Pregabalin, pregabalin] | – | potency in binding affinity to the α2-δ voltage-gated calcium channel relative to gabapentin [1]: six-times more potent than gabapentin |
| COc1ccc2c(C(=O)C(=O)N3CCOCC3)c[nH]c2c1 [Compound 57, 1-(6-methoxy-1H-indol-3-yl)-2-morpholinoethane-1,2-dione] | 44 | – |
| COc1ccc2c(C(=O)C(=O)O)c[nH]c2c1 [Compound 31, 2-(6-methoxy-1H-indol-3-yl)-2-oxoacetic acid] | – | inhibition at 0.1 µM (N-type/Cav2.2 channels; DRG neuron, compound concentration 0.1 uM): 36% |
| ethyl 2-(6-methoxy-1H-indol-3-yl)-2-oxoacetate [Compound 40] | – | % Inhibition at 0.5 Hz (N-type/Cav2.2 channels; compound concentration 1 uM): 57% |
